In patent US9346810B2, “Pyrrolopyrimidine compounds and uses thereof” (HUTCHISON MEDIPHARMA LIMITED, priority 2010, dated 2016):
pIC50: −log10 of the molar value. Read-outs that look alike come from different tables or passages of the source.

Columns and labels:
[1] = target: Recombinant human JAK3 catalytic domain (Homo sapiens (Human), UniProt P52333); experiment: JAK3 kinase assay (Z'-LYTE, Tyr 6 Peptide); assay type: biochemical
Experimental: (§1) JAK1/2/3 kinase assay are performed in vitro using Kit-Tyr 6 Peptide (Invitrogen, Cat. No. PV4122). TYK2 kinase assay are performed in vitro using Z′-LYTE™ Kinase Assay Kit-Tyr 3 Peptide (Invitrogen, Cat. No. PV3192). […] All compounds are initially tested at 8 different concentrations (1 μM down to 0.0003 μM) using a 1:3 serial dilution scheme.

[2] = target: Recombinant human JAK2 catalytic domain (Homo sapiens (Human), UniProt O60674); experiment: JAK2 kinase assay (Z'-LYTE, Tyr 6 Peptide); assay type: biochemical
Sequence of Recombinant human JAK2 catalytic domain (O60674 849-1124): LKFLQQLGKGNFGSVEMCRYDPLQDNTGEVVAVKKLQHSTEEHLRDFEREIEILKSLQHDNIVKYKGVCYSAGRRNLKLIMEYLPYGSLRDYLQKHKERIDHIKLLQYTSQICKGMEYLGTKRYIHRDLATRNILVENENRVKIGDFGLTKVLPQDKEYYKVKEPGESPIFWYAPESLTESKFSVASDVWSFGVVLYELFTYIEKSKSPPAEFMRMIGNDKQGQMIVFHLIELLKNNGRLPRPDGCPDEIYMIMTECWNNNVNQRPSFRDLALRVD
Experimental: as §1

[3] = read-out: IC50 in JAK3 kinase assay
[4] = read-out: IC50 in JAK2 kinase assay

Sequence of Recombinant human JAK3 catalytic domain (P52333 822-1111): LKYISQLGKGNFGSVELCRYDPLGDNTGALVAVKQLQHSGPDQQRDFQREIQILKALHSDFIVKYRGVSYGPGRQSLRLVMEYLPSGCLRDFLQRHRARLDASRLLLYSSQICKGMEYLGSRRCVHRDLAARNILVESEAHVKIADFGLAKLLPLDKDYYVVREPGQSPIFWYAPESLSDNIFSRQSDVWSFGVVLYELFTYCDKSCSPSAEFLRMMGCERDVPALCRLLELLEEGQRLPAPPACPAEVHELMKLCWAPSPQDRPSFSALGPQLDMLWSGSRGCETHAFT

Structure (SMILES)	pIC50 [1, 3]	pIC50 [2, 4]	other results
CN(c1nc(Cl)nc2ccccc12)[C@@H]1CCN(c2ncnc3[nH]ccc23)C1 [Compound 79]	6.00 to 7.00	6.00 to 7.00	
CN(c1ccc(Cl)nn1)[C@@H]1CCN(c2ncnc3[nH]ccc23)C1 [Compound 85]		6.00 to 7.00	
CN(c1ccc(-c2cccs2)cn1)[C@@H]1CCN(c2ncnc3[nH]ccc23)C1 [Compound 147]		6.00 to 7.00	
CN(c1ncc(Br)cn1)[C@@H]1CCN(c2ncnc3[nH]ccc23)C1 [Compound 94]	6.00 to 7.00	7.00 to 9.00	
CN(c1ncc(C#N)cc1Cl)[C@@H]1CCN(c2ncnc3[nH]ccc23)C1 [Compound 83]		6.00 to 7.00	
N#CCN(C1CCC1)[C@@H]1CCN(c2ncnc3[nH]ccc23)C1 [Compound 52]		6.00 to 7.00	
CN(c1ncc(C#N)cc1Br)[C@@H]1CCN(c2ncnc3[nH]ccc23)C1 [Compound 99]	6.00 to 7.00	7.00 to 9.00	
C[C@H](NC(=O)c1ccc(N(C)[C@@H]2CCN(c3ncnc4[nH]ccc34)C2)c(F)c1)c1ccccc1 [Compound 182]	7.00 to 9.00	7.00 to 9.00	
CN(c1cccc(C#N)n1)[C@@H]1CCN(c2ncnc3[nH]ccc23)C1 [Compound 91]	6.00 to 7.00	7.00 to 9.00	
CC(C)S(=O)(=O)N(C)[C@@H]1CCN(c2ncnc3[nH]ccc23)C1 [Compound 49]		6.00 to 7.00	
CN(c1ncnc2ccccc12)[C@@H]1CCN(c2ncnc3[nH]ccc23)C1 [Compound 80]	6.00 to 7.00	7.00 to 9.00	
CN(c1ccc(C(=O)N[C@@H](CO)c2ccccc2)cc1F)[C@@H]1CCN(c2ncnc3[nH]ccc23)C1 [Compound 179]		7.00 to 9.00	
CN(c1ccc(C#N)c2ccccc12)[C@@H]1CCN(c2ncnc3[nH]ccc23)C1 [Compound 111]	6.00 to 7.00	7.00 to 9.00	
CCS(=O)(=O)N(C)[C@@H]1CCN(c2ncnc3[nH]ccc23)C1 [Compound 48]	6.00 to 7.00	7.00 to 9.00	
N#Cc1ccc2c(c1)CCN2C1CCN(c2ncnc3[nH]ccc23)C1 (stereo not shown) [Compound 46]		7.00 to 9.00	
CN(C(=O)C1(C#N)CC1)[C@@H]1CCN(c2ncnc3[nH]ccc23)C1 [Compound 6]		6.00 to 7.00	
CN(c1ccc(C#N)cn1)[C@@H]1CCN(c2ncnc3[nH]ccc23)C1 [Compound 71]	6.00 to 7.00	7.00 to 9.00	
CN(c1ccc(C(F)(F)F)nn1)[C@@H]1CCN(c2ncnc3[nH]ccc23)C1 [Compound 62]	6.00 to 7.00	7.00 to 9.00	
CN(c1ccc(C(=O)NCCO)cn1)[C@@H]1CCN(c2ncnc3[nH]ccc23)C1 [Compound 190]	6.00 to 7.00	7.00 to 9.00	
CN(c1ccc(C#N)cn1)[C@@H]1CCN(c2ccnc3[nH]ccc23)C1 [Compound 92]	6.00 to 7.00	7.00 to 9.00	

Structure (SMILES)	pIC50 [1, 3]	pIC50 [2, 4]	other results
CN(c1ccc2[nH]c(=O)[nH]c2n1)[C@@H]1CCN(c2ncnc3[nH]ccc23)C1 [Compound 164, (R)-5-((1-(7H-pyrrolo[2,3-d]pyrimidin-4-yl)pyrrolidin-3-yl)(methyl)amino)-1H-Imidazo[4,5-b]pyridin-2(3H)-one]	6.00 to 7.00	7.00 to 9.00	
CN(c1ccc(C#N)c(Cl)n1)[C@@H]1CCN(c2ncnc3[nH]ccc23)C1 [Compound 90]		6.00 to 7.00	
CN(c1ccc(C(=O)NC2CC2)cn1)[C@@H]1CCN(c2ncnc3[nH]ccc23)C1 [Compound 171, (R)-6-((1-(7H-pyrrolo[2,3-d]pyrimidin-4-yl)pyrrolidin-3-yl)(methyl)amino)-N-cyclopropylnicotinamide]	6.00 to 7.00	7.00 to 9.00	
C#CCN(c1c(F)cc(C#N)cc1F)[C@@H]1CCN(c2ncnc3[nH]ccc23)C1 [Compound 129]	7.00 to 9.00	7.00 to 9.00	
C#CCN(C1CCOC1)[C@@H]1CCN(c2ncnc3[nH]ccc23)C1 (stereo partly shown) [Compound 56]		6.00 to 7.00	
CN(c1ccc(-c2nn[nH]n2)cn1)[C@@H]1CCN(c2ncnc3[nH]ccc23)C1 [Compound 160, (R)—N-(1-(7H-pyrrolo[2,3-d]pyrimidin-4-yl)pyrrolidin-3-yl)-N-methyl-5-(2H-tetrazol-5-yl)pyridin-2-amine]		6.00 to 7.00	
CCCN(c1ccc(C#N)cn1)[C@@H]1CCN(c2ncnc3[nH]ccc23)C1 [Compound 98]	6.00 to 7.00	7.00 to 9.00	
CN(c1ccc(C#N)c(F)c1)[C@@H]1CCN(c2ncnc3[nH]ccc23)C1 [Compound 105]			pIC50 ([1]; read-out: JAK3 (enzyme, IC50)): 6.44; pIC50 ([2]; read-out: JAK2 (enzyme, IC50)): 7.31
CN(c1ccc(C(=O)N[C@@H](CO)c2ccccc2)cn1)[C@@H]1CCN(c2ncnc3[nH]ccc23)C1 [Compound 176]		7.00 to 9.00	
CN([C@@H]1CCN(c2ncnc3[nH]ccc23)C1)S(=O)(=O)c1cccc(C#N)c1 [Compound 10]		6.00 to 7.00	
CN(c1ccc(F)cn1)[C@@H]1CCN(c2ncnc3[nH]ccc23)C1 [Compound 66]	7.00 to 9.00	7.00 to 9.00	
CN(c1cnc(C#N)cn1)[C@@H]1CCN(c2ncnc3[nH]ccc23)C1 [Compound 84]	6.00 to 7.00		
CN(c1ccc(C#N)cc1[N+](=O)[O-])[C@@H]1CCN(c2ncnc3[nH]ccc23)C1 [Compound 107]	6.00 to 7.00	6.00 to 7.00	
Cc1cc(N(C)[C@@H]2CCN(c3ncnc4[nH]ccc34)C2)nc(Cl)c1C#N [Compound 72]		6.00 to 7.00	
CN(c1ccc2nn[nH]c2n1)[C@@H]1CCN(c2ncnc3[nH]ccc23)C1 [Compound 167, (R)—N-(1-(7H-pyrrolo[2,3-d]pyrimidin-4-yl)pyrrolidin-3-yl)-N-methyl-3H-[1,2,3]triazolo[4,5-b]pyridin-5-amine]		6.00 to 7.00	
CN(C(=O)Nc1ccc(C#N)cc1)[C@@H]1CCN(c2ncnc3[nH]ccc23)C1 [Compound 17]	6.00 to 7.00	6.00 to 7.00	
CNS(=O)(=O)N(C)[C@@H]1CCN(c2ncnc3[nH]ccc23)C1 [Compound 47]		7.00 to 9.00	pIC50 ([1]; read-out: JAK3 (enzyme, IC50)): 6.80; pIC50 ([2]; read-out: JAK2 (enzyme, IC50)): 7.01
CN(c1ccc(C#N)nn1)[C@@H]1CCN(c2ncnc3[nH]ccc23)C1 [Compound 60]	6.00 to 7.00	7.00 to 9.00	
CCCC(=O)N(C)[C@@H]1CCN(c2ncnc3[nH]ccc23)C1 [Compound 3]		6.00 to 7.00	
CN(c1ncc(Br)cc1C#N)[C@@H]1CCN(c2ncnc3[nH]ccc23)C1 [Compound 89]		6.00 to 7.00	

Structure (SMILES)	pIC50 [1, 3]	pIC50 [2, 4]	other results
CN(C(=O)c1ccc(N(C)[C@@H]2CCN(c3ncnc4[nH]ccc34)C2)nc1)c1ccc(F)cc1 [Compound 178]		6.00 to 7.00	
C#CCN(c1ccc(C#N)cc1F)[C@@H]1CCN(c2ncnc3[nH]ccc23)C1 [Compound 130]		6.00 to 7.00	
CN(c1c(F)cc(C#N)cc1F)[C@@H]1CCN(c2ncnc3[nH]ccc23)C1 [Compound 108]		6.00 to 7.00	
N#CCN(C1CC1)[C@@H]1CCN(c2ncnc3[nH]ccc23)C1 [Compound 55]		6.00 to 7.00	
CN([C@@H]1CCN(c2ncnc3[nH]ccc23)C1)S(=O)(=O)c1cccc([N+](=O)[O-])c1 [Compound 12]		6.00 to 7.00	
CN(c1ncc(C#N)cc1F)[C@@H]1CCN(c2ncnc3[nH]ccc23)C1 [Compound 158]		6.00 to 7.00	
CN(c1ccc(S(N)(=O)=O)cn1)[C@@H]1CCN(c2ncnc3[nH]ccc23)C1 [Compound 234]			pIC50 ([1]; read-out: JAK3 (enzyme, IC50)): 7.06
CN(c1ccc(NS(=O)(=O)c2ccc(F)cc2)cn1)[C@@H]1CCN(c2ncnc3[nH]ccc23)C1 [Compound 212]		7.00 to 9.00	
CN(c1ccc(C(=O)NC(CO)c2ccc(Cl)cc2)cc1F)[C@@H]1CCN(c2ncnc3[nH]ccc23)C1 (stereo partly shown) [Compound 201]		7.00 to 9.00	
CN(c1ccc(C(=O)NC(CO)c2ccccc2Cl)cc1F)[C@@H]1CCN(c2ncnc3[nH]ccc23)C1 (stereo partly shown) [Compound 207]		6.00 to 7.00	
CN(c1ccc(C(=O)Nc2cccc(Cl)c2)cc1F)[C@@H]1CCN(c2ncnc3[nH]ccc23)C1 [Compound 185]		7.00 to 9.00	
CN(C(=O)CC(F)(F)F)[C@@H]1CCN(c2ncnc3[nH]ccc23)C1 [Compound 25]	6.00 to 7.00		
C#CCN(c1ccc(S(C)(=O)=O)cn1)[C@@H]1CCN(c2ncnc3[nH]ccc23)C1 [Compound 58]		6.00 to 7.00	
CN(c1ccc(C#N)cc1Br)[C@@H]1CCN(c2ncnc3[nH]ccc23)C1 [Compound 115]		6.00 to 7.00	
CCOc1cnc(N(C)[C@@H]2CCN(c3ncnc4[nH]ccc34)C2)cn1 [Compound 136]		6.00 to 7.00	
Cc1cc(N(C)[C@@H]2CCN(c3ncnc4[nH]ccc34)C2)ncc1C#N [Compound 157]		7.00 to 9.00	
CN(c1ccc(C(=O)O)cn1)[C@@H]1CCN(c2ncnc3[nH]ccc23)C1 [Compound 170, (R)-6-((1-(7H-pyrrolo[2,3-d]pyrimidin-4-yl)pyrrolidin-3-yl)(methyl)amino)nicotinic acid]		6.00 to 7.00	
CN(c1ccc(C(=O)Nc2ccccc2F)cn1)[C@@H]1CCN(c2ncnc3[nH]ccc23)C1 [Compound 192]		7.00 to 9.00	
CN(C1CCCC1)[C@@H]1CCN(c2ncnc3[nH]ccc23)C1 [Compound 53]		6.00 to 7.00	
